Experimental data published in patent US20260061065A1, “ANTIBODY DRUG CONJUGATES” (priority 2022, published 2026).

Legend:
Type in all cases: cell-based
EBC-1 lung cancer cells = assay: CellTiter-Glo proliferation assay, EBC1
Experimental: (§1) OCUM-1: Stomach/gastric cancer—JCRB No. JCRB0192 cultured in DMEM+0.5 mM sodium pyruvate+10% FBS EBC-1: Lung cancer—JCRB No. JCRB0820 cultured in DMEM+10% FBS SKCO-1: Colon cancer—ATCC No. HTB-39 cultured in Eagle's Minimum Essential Medium+10% FBS The Her2 antibody drug conjugates were tested against nine endogenous cancer cell lines. NCI-N87: Stomach/gastric cancer—ATCC No. CRL-5822 cultured in RPMI-1640+10% FBS The PCAD antibody drug conjugates were tested against nine endogenous cancer cell lines. BICR-22: Tongue cancer—ECACC No. 04072106 cultured in DMEM+2 mM Glutamine+2% FBS+0.4 micrograms/ml Hydrocortisone
(§2) The ability of the antibody drug conjugates to inhibit cell proliferation and survival was assessed using the Promega CellTiter-Glo® proliferation assay.
(§3) Cell lines were cultured in media that is optimal for their growth at 5% CO2, 37° C. in a tissue culture incubator. […] On the day of seeding, cell viability and cell density were determined using a cell counter (Vi-Cell XR Cell Viability Analyzer, Beckman Coulter). […] Plates were incubated at 5% CO2, 37° C. for 5 days in a tissue culture incubator, after which cell viability was assessed through the addition of 25 μL of CellTiter Glo® (Promega, cat #G7573), a reagent which lyses cells and measures total adenosine triphosphate (ATP) content. […]

[1] = system: NCI-N87 stomach/gastric cancer cells; assay: CellTiter-Glo proliferation assay, NCIN87
Experimental: as §1, §2, §3

[2] = system: SKCO-1 colon cancer cells; assay: CellTiter-Glo proliferation assay, SKCO1
Experimental: as §1, §2, §3

[3] = system: OCUM-1 stomach/gastric cancer cells; assay: CellTiter-Glo proliferation assay, OCUM1
Experimental: as §1, §2, §3

[4] = system: BICR-22 tongue cancer cells; assay: CellTiter-Glo proliferation assay, BICR22
Experimental: as §1, §2, §3

For `CCC(C)[C@@H]([C@@H](CC(=O)N1CCC[C@H]1[C@H](OC)[C@@H](C)C(=O)N[C@@H](Cc1ccccc1)c1nccs1)OC)N(C)C(=O)[C@@H](NC(=O)[C@H]1N[C@@H]2CC[C@H]1C2)C(C)C` (stereo partly shown) [Auristatin#1], the IC50 (EBC-1 lung cancer cells; Homo sapiens, EBC-1, 120 h) was 0.23 nM, the “Amax (Span)” value (EBC-1 lung cancer cells; Unconjugated drug cytotoxicity, EBC1, 5 days) was 77.0 and the IC50 ([1]; Homo sapiens, NCI-N87, 120 h) was 1.2 nM. The “Amax (Span)” value ([1]; Unconjugated drug cytotoxicity, NCIN87, 5 days) was 75.7, the IC50 ([2]; Homo sapiens, SK-CO-1, 120 h) was 1.13 nM and the “Amax (Span)” value ([2]; Unconjugated drug cytotoxicity, SKCO1, 5 days) was 81.6. The IC50 ([3]; OCUM1, 120 h) was 1.38 nM, the “Amax (Span)” value ([3]; Unconjugated drug cytotoxicity, OCUM1, 5 days) was 72.3 and the IC50 ([4]; 120 h) was 0.271 nM. The “Amax (Span)” value ([4]; Unconjugated drug cytotoxicity, BICR22, 5 days) was 89.7.
